Biological target: PD-L1 (Homo sapiens (Human), UniProt Q9NZQ7)
Test: PD-1/PD-L1 homogeneous time-resolved fluorescence (HTRF) binding assay
Conditions: Cisbio PD1/PD-L1 binding assay kit
Description: PD-1/PD-L1 homogeneous time-resolved fluorescence (HTRF) detection technology was used to detect the binding ability of the compound to PD-L1.
PD1/PD-L1 binding assay kit (Cisbio, Cat #63ADK000CPDEC) was used, which includes two proteins, Tag 1-PD-L1 and Tag 2-PD-1, and two antibodies, Anti-Tag1-Eu^3+ and Anti-Tag2-XL 665. Assay principle: Anti-tag1-Eu^3+ is the HTRF donor, and Anti-Tag2-XL 665 is the HTRF acceptor. When Tag 1-PD-L1 and Tag 2-PD-1 interact, the added HTRF donor and the acceptor are close to each other. After the donor receives the excitation energy, it transfers part of the energy to the acceptor, thus producing 665 nm emission signal. When the compound is added to block the PD1/PD-L1 interaction, only 620 nm emission light was detected. The inhibitory effect of the compound was determined by analyzing the ratio of 665 nm/620 nm. Tag 1-PD-L1 was diluted with Diluent buffer (cat #62DLBDDF) to a working concentration of 10 nM, Tag 2-PD-1 was diluted with Diluent buffer to a working concentration of 500 nM, and Anti-Tag1-Eu^3+ was diluted with detection buffer (cat #62DB1FDG) by 1:100, Anti-Tag2-XL 665 was diluted with detection buffer by 1:20, and the test compound was diluted with Diluent buffer to a final concentration of 2×. In a 384-well plate, 2 μL of compound was added to each well, and then 4 μL of Tag 1-PD-L1, 4 μL of Tag 2-PD-1 were added and incubated at room temperature for 15 minutes. 5 μL Anti-Tag1-Eu^3+ and 5 μL Anti-Tag2-XL 665 were added and incubated overnight at room temperature, and detected with BioTek Synergy™ Neo2 Multifunctional Microplate Reader to obtain the ratio of 665 nm/620 nm. The IC50 curve was fitted by GraphPad Prism 5.02.

PD-L1, sequence (Q9NZQ7 19-238): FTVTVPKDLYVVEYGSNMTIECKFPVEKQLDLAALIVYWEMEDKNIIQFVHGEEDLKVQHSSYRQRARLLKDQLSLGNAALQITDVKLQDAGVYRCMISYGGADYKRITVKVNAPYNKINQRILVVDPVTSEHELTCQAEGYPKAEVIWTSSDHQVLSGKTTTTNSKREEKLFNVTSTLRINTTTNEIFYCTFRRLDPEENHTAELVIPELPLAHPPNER

SMILES	IC50
COc1nc(OCc2cccc(-c3cccc(COc4ccc(CNCC(N)=O)c(OC)n4)c3Cl)c2Cl)ccc1CNCC(N)=O [Compound 73]	< 10 nM
COc1nc(OCc2cccc(-c3cccc(COc4ccc(CNCC(C)(C)O)c(OC)n4)c3C)c2C)ccc1CNCC(C)(C)O [Compound 20]	10 to 100 nM
COc1nc(OCc2cccc(-c3cccc(COc4ccc(CN5C[C@@H](O)C[C@H]5C(=O)O)c(OC)n4)c3Cl)c2Cl)ccc1CN1CC[C@H](O)C1 [Compound 58]	< 10 nM
COC(=O)[C@@H]1C[C@H](O)CN1Cc1ccc(OCc2cccc(-c3cccc(COc4ccc(CN5C[C@@H](O)C[C@H]5C(=O)OC)c(OC)n4)c3Cl)c2Cl)nc1OC [Compound 48]	100 to 1000 nM
COc1nc(OCc2cccc(-c3cccc(COc4ccc(CNC(C)(CO)CO)c(OC)n4)c3C)c2C)ccc1CNC(C)(CO)CO [Compound 50]	< 10 nM
COc1nc(OCc2cccc(-n3nc(C)c(COc4ccc(CNCCNC(C)=O)c(OC)n4)c3C)c2C)ccc1CNCCNC(C)=O [Compound 29]	> 1000 nM
COc1nc(OCc2cccc(-c3cccc(COc4ccc(CN5CCCCC5C(=O)O)c(OC)n4)c3Cl)c2Cl)ccc1CN1CCCCC1C(=O)O (stereo not shown) [Compound 70]	< 10 nM
COc1nc(OCc2cccc(-c3ccccc3)c2C)ccc1CN [Compound 23]	100 to 1000 nM
COc1nc(OCc2cccc(-c3cccc(COc4ccc(CN(CCO)CCO)c(OC)n4)c3Cl)c2Cl)ccc1CN(CCO)CCO [Compound 72]	< 10 nM
COc1nc(OCc2cccc(-n3c(C)nc(COc4ccc(CNCCNC(C)=O)c(OC)n4)c3C)c2C)ccc1CNCCNC(C)=O [Compound 44]	> 1000 nM
COc1nc(OCc2cccc(-c3cccc(COc4ccc(CNCCNC(C)=O)c(OC)n4)c3Cl)c2Cl)ccc1CNCCNC(C)=O [Compound 43]	< 10 nM
COc1nc(OCc2cccc(-c3cccc(COc4ccc(CN[C@@H](CC(N)=O)C(=O)O)c(OC)n4)c3C)c2C)ccc1CN[C@@H](CC(N)=O)C(=O)O [Compound 49]	< 10 nM
COc1nc(OCc2cccc(-c3cccc(COc4ccc(CNCCC(N)=O)c(OC)n4)c3C)c2C)ccc1CNCCC(N)=O [Compound 22]	10 to 100 nM
COc1nc(OCc2cccc(-c3cccc(COc4ccc(CN5C[C@@H](O)C[C@H]5C(=O)O)c(OC)n4)c3F)c2C)ccc1CN1C[C@@H](O)C[C@H]1C(=O)O [Compound 66]	< 10 nM
COc1nc(OCc2cccc(-c3cccc(COc4ccc(CN5CCCC[C@@H]5C(=O)O)c(OC)n4)c3C)c2C)ccc1CN1CCCC[C@@H]1C(=O)O [Compound 27]	< 10 nM
COc1nc(OCc2cccc(-c3cccc(COc4ccc(CN5CC[C@H](O)C5)c(OC)n4)c3Cl)c2Cl)ccc1CN1CC[C@H](O)C1 [Compound 62]	< 10 nM
COc1nc(OCc2cccc(-c3cccc(CO)c3C)c2C)ccc1CNC(=O)C(F)(F)F [Compound 1, 2,2,2-trifluoro-N-((6-((3′-(hydroxymethyl)-2,2′-dimethyl-[1,1′-biphenyl]-3-yl)methoxy)-2-methoxypyridin-3-yl)methyl)acetamide]	> 1000 nM
COc1nc(OCc2cccc(-n3cnc(COc4ccc(CNCCNC(C)=O)c(OC)n4)c3C)c2C)ccc1CNCCNC(C)=O [Compound 38]	> 1000 nM
COc1nc(OCc2cccc(COc3ccc(CNCCNC(C)=O)c(OC)n3)c2C)ccc1CNCCNC(C)=O [Compound 19]	100 to 1000 nM
COc1nc(OCc2cccc(-c3cccc(COc4ccc(CN5CCCC5CC(=O)O)c(OC)n4)c3C)c2C)ccc1CN1CCCC1CC(=O)O (stereo not shown) [Compound 39]	10 to 100 nM
COc1nc(OCc2cccc(-c3cccc(COc4ccc(CN5CC(CC(N)=O)C5)c(OC)n4)c3Cl)c2Cl)ccc1CN1CC(CC(N)=O)C1 [Compound 76]	< 10 nM
COc1nc(OCc2cccc(-c3cccc(COc4ccc(CN5CC[C@@H](NC(C)=O)C5)c(OC)n4)c3C)c2C)ccc1CN1CC[C@@H](NC(C)=O)C1 [Compound 52]	10 to 100 nM
COc1nc(OCc2cccc(-c3cccc(COc4ccc(CN5CC(C(N)=O)C5)c(OC)n4)c3C)c2C)ccc1CN1CC(C(N)=O)C1 [Compound 63]	< 10 nM
COc1nc(OCc2cccc(-c3cccc(COc4ccc(CNCC(C)C(=O)O)c(OC)n4)c3C)c2C)ccc1CNCC(C)C(=O)O (stereo not shown) [Compound 33]	10 to 100 nM
COc1nc(OCc2cccc(COc3ccc(CNCCNC(C)=O)c(OC)n3)n2)ccc1CNCCNC(C)=O [Compound 18, N,N-((((((pyridine-2,6-diyl-bis (methylene))bis (oxo))bis (2-methoxypyridine-6,3-diyl))bis (methylene))bis (azetanediyl))bis (ethane-2,1-diyl)) diacetamide]	> 1000 nM

SMILES	IC50
CNS(=O)(=O)CCNCc1ccc(OCc2cccc(-c3cccc(COc4ccc(CNCCS(=O)(=O)NC)c(OC)n4)c3Cl)c2Cl)nc1OC [Compound 80]	10 to 100 nM
COc1nc(OCc2cccc(-c3cccc(COc4ccc(CNCC(N)C(F)(F)F)c(OC)n4)c3Cl)c2Cl)ccc1CNCC(N)C(F)(F)F (stereo not shown) [Compound 82]	10 to 100 nM
CNC(=O)CNCc1ccc(OCc2cccc(-c3cccc(COc4ccc(CNCC(=O)NC)c(OC)n4)c3Cl)c2Cl)nc1OC [Compound 77]	< 10 nM
COc1nc(OCc2cccc(-c3cccc(COc4ccc(CN5C[C@@H](O)C[C@H]5C(=O)O)c(OC)n4)c3C)c2C)ccc1CN1CC[C@H](O)C1 [Compound 47]	< 10 nM
CC(=O)NCCNCc1cc(Cl)c2nc(-c3cccc(-c4cccc(-c5nc6c(Cl)cc(CNCCNC(C)=O)cn6n5)c4C)c3C)nn2c1 [Compound 45]	< 10 nM
COc1nc(OCc2cccc(-c3cccc(COc4ccc(CNCCS(N)(=O)=O)c(OC)n4)c3Cl)c2Cl)ccc1CNCCS(N)(=O)=O [Compound 78]	< 10 nM
COc1nc(OCc2cccc(-c3cccc(COc4ccc(CNC5(C(=O)O)CC5)c(OC)n4)c3C)c2C)ccc1CNC1(C(=O)O)CC1 [Compound 37]	< 10 nM
COc1nc(OCc2cccc(-c3cccc(COc4ccc(CN5C[C@@H](F)C[C@H]5C(=O)O)c(OC)n4)c3Cl)c2Cl)ccc1CN1C[C@@H](F)C[C@H]1C(=O)O [Compound 79]	< 10 nM
COc1nc(OCc2cccc(-c3cccc(COc4ccc(CNC5CNC(=O)C5)c(OC)n4)c3C)c2C)ccc1CNC1CNC(=O)C1 (stereo not shown) [Compound 55]	10 to 100 nM
COc1nc(OCc2cccc(-c3cccc(COc4ccc(CN5CC(O)C(CC#N)C5)c(OC)n4)c3C)c2C)ccc1CN1CC(O)C(CC#N)C1 (stereo not shown) [Compound 65]	< 10 nM
COc1nc(OCc2cccc(-c3cccc(CO)c3C)c2C)ccc1CCN [Compound 15, (3′-(((5-(2-aminoethyl)-6-methoxypyridin-2-yl)oxo)methyl)-2,2′-dimethyl-[1,1′-biphenyl]-3-yl) methanol]	100 to 1000 nM
COc1nc(OCc2cccc(-c3cccc(COc4ccc(CNC(CCO)C(=O)O)c(OC)n4)c3C)c2C)ccc1CNC(CCO)C(=O)O (stereo not shown) [Compound 67]	< 10 nM
CC(=O)NCCNCc1cc2nc(OCc3cccc(-c4cccc(COc5ccc6[nH]c(CNCCNC(C)=O)cc6n5)c4C)c3C)ccc2[nH]1 [Compound 34]	10 to 100 nM
COc1nc(OCc2cccc(-c3cccc(COc4ccc(CN5C[C@@H](O)C[C@H]5C(=O)O)c(OC)n4)c3Cl)c2Cl)ccc1CO [Compound 57]	10 to 100 nM
COc1nc(OCc2cccc(-c3cccc(COc4ccc(CNCCNC(C)=O)c(OC)n4)c3C)c2)ccc1CNCCNC(C)=O [Compound 28]	10 to 100 nM
COc1cc(N)cc(OCc2cccc(-c3cccc(CO)c3C)c2C)n1 [Compound 12, (3′-(((4-amino-6-methoxypyridin-2-yl)oxo)methyl)-2,2′-dimethyl-[1,1′-biphenyl]-3-yl)methanol]	> 1000 nM
COc1nc(OCc2cccc(-c3cccc(COc4ccc(CNC(CO)CO)c(OC)n4)c3Cl)c2Cl)ccc1CNC(CO)CO [Compound 68]	< 10 nM
Cc1c(COc2ccc3[nH]c(CO)cc3n2)cccc1-c1cccc(COc2ccc3[nH]c(CO)cc3n2)c1C [Compound 32]	> 1000 nM
COc1nc(OCc2cccc(-n3nnc(COc4ccc(CNCCNC(C)=O)c(OC)n4)c3C)c2C)ccc1CNCCNC(C)=O [Compound 31]	> 1000 nM
Cc1c(CO)cccc1-c1cccc(COc2cccc(CN)n2)c1C [Compound 7, (3′-(((6-(aminomethyl)pyridin-2-yl)oxo)methyl)-2,2′-dimethyl-[1,1′-biphenyl]-3-yl)methanol]	> 1000 nM
CC(=O)NCCNCC(=O)Nc1cnn(Cc2cccc(-c3cccc(Cn4cc(NC(=O)CNCCNC(C)=O)cn4)c3C)c2C)c1 [Compound 25]	> 1000 nM
COc1nc(OCc2cccc(-c3cccc(CO)c3C)c2C)ccc1N [Compound 8]	> 1000 nM
COc1nc(OCc2cccc(-c3cccc(COc4ccc(CN5CCC6(CCC(=O)N6)C5)c(OC)n4)c3C)c2C)ccc1CN1CCC2(CCC(=O)N2)C1 (stereo not shown) [Compound 60]	< 10 nM
COc1nc(OCc2cccc(-c3csc(COc4ccc(CNCCNC(C)=O)c(OC)n4)c3C)c2C)ccc1CNCCNC(C)=O [Compound 36]	< 10 nM

Reference: patent US11787766B2, “Compound having PD-L1 inhibitory activity, preparation method therefor and use thereof” (SHANGHAI ENNOVABIO PHARMACEUTICALS CO., LTD., priority 2017, dated 2023)
